Measured values reported in publication PMC9684503 (Communications Biology, 2022).
“And” between values parts separate entries of the source, which are not always exact repeats. Equal entries are not always repeated. Structures can show the parent of a compound that is named as a salt.

Key:
[1] = biological target: rat VMAT2 Q143A (Rattus norvegicus, UniProt Q01827, Q143A); assay: FFN206 uptake assay, VMAT2 mutant
Protocol: (§1) For activity assays, [^3H]-DTBZ and [^3H]-SMT binding and competition assays (see section below), several VMAT2 mutants were prepared. […] In addition, a selection of rVMAT2 mutants carrying mutations designed from binding modes identified by docking and MD-simulation was prepared in a pcDNA3.1 rVMAT2-Strep tag II plasmid.

[2] = biological target: T1, rat VMAT2-His (Rattus norvegicus, UniProt Q01827); assay: Differential scanning fluorimetry (DSF) with CPM dye: change of melting temperature of purified VMAT2; format: binding; conditions: for ΔTm: Table 1, DSF screening, mean ± SD of triplicates; for ΔTm at 12 µM / ΔTm at 37 µM / ΔTm at 10 µM / ΔTm at 30 µM / ΔTm at 90 µM / ΔTm at 270 µM / ΔTm at 11 µM / ΔTm at 33 µM: Table S2 dose response, read-out: ΔTm; for ΔTm at 12 µM: compound 0,12 µM; for ΔTm at 37 µM: compound 0,37 µM; for ΔTm at 10 µM: compound 10 µM; for ΔTm at 30 µM: compound 30 µM; for ΔTm at 90 µM: compound 90 µM; for ΔTm at 270 µM: compound 270 µM; for ΔTm at 11 µM: compound 1,11 µM; for ΔTm at 33 µM: compound 3,33 µM
T1 construct: The ORF of rat VMAT2 was subcloned into a pFastBac vector; His; made in house; host or cells: Sf9 insect cells (baculovirus)
Summary of the method: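 Rat VMAT2-His from Sf9 baculovirus cells, purified by IMAC and SEC in DDM/CHS micelles, was screened by CPM-dye DSF over a 25–95 °C ramp at 2 °C/min. Tm was taken from the second derivative of the melting curve. Hits were validated in triplicate at 200 μM, with ΔTm > 5× SD as the cutoff.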

[3] = biological target: T2, VMAT2 (Rattus norvegicus, UniProt Q01827); conditions: hek293 cells, 50 µM
Protocol: (§2) We preincubated cells expressing VMAT2 with 50 μM compounds and measured [^3H]-DTBZ binding (5 nM) to the sample (Fig. 3a). […] Hek293 cells were grown and transfected with pcDNA3.1 VMAT2-His as described above. Two days after transfection, cells were harvested, washed and transferred to 96 well MultiScreen FB filter plates (Millipore). […] Cells were washed 3 times with ice cold PBS and 50 µl Ultima Gold LLL (PerkinElmer) was added to each well. […] After a 20 min incubation at 37 °C, cells were washed and [^3H] scintillation counting was performed as described above.

[4] = biological target: rat VMAT2 P314A (Rattus norvegicus, UniProt Q01827, P314A); assay: FFN206 uptake assay, VMAT2 mutant
Protocol: as §1

[5] = biological target: T2, VMAT2; assay: [3H]-DTBZ competition assay in Hek293 cells expressing VMAT2;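 as to all read-outs here: HEK293 cells transfected with VMAT2, pretreated 30 min with compound, then given 5 nM [3H]-DTBZ for 20 min at 37 °C, bound label read by scintillation counting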; conditions: for effect on [3H]-DTBZ binding compared with DMSO control (one-way ANOVA, p < 0.001): 50 μM compound; for [3H]-DTBZ binding relative to no compound (=1), replicate samples: Fig. 3b source data
Protocol: as §2

[6] = biological target: T3, human VMAT2 (Homo sapiens, UniProt Q05940); assay: FFN206 uptake assay in transfected Hek293 cells; format: cell-based; conditions: Table S1, substrate uptake assays in transfected Hek293 cells
T3 construct: expressed in transfected cells; host or cells: Hek293 cells, transient

[7] = biological target: T4, human VMAT1 (Homo sapiens, UniProt P54219); assay: FFN206 uptake assay in transfected Hek293 cells; format: cell-based; conditions: Table S1, substrate uptake assays in transfected Hek293 cells
T4 construct: expressed in transfected cells; host or cells: Hek293 cells, transient
T4 sequence (P54219 1-525): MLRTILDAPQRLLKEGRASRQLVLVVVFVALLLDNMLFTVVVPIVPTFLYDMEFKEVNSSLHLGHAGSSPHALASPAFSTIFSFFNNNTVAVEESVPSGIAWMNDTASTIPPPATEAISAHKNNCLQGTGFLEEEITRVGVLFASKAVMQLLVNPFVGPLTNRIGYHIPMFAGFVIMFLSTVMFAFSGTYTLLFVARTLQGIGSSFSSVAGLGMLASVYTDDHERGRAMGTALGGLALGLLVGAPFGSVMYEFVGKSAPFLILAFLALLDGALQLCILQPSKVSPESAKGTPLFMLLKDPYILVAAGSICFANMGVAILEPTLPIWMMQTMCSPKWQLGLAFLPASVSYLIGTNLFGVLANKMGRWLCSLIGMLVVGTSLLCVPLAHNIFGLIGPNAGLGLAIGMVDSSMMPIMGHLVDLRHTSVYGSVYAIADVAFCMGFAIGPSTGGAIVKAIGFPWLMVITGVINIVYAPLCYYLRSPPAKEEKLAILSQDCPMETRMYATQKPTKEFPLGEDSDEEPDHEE

[8] = biological target: rat VMAT2 Y434A (Rattus norvegicus, UniProt Q01827, Y434A); assay: FFN206 uptake assay, VMAT2 mutant
Protocol: as §1

[9] = biological target: rat VMAT2 (Rattus norvegicus, UniProt Q01827); assay: FFN206 uptake assay in transfected Hek293 cells; conditions: for VMAT2-specific FFN206 uptake relative to DMSO (=1), replicate samples: Fig. 2a source data, 25 μM compound
[10] = compound 100.0000 (μM per methods)
[11] = Fig. 2b/2c source data, compound 0.0152 μM
[12] = Fig. 2b/2c source data, compound 0.1372 μM
[13] = Fig. 2b/2c source data, compound 0.4115 μM
[14] = Fig. 2b/2c source data, compound 1.2346 μM
[15] = Fig. 2b/2c source data, compound 3.7037 μM
[16] = Fig. 2b/2c source data, compound 11.1111 μM
[17] = Fig. 2b/2c source data, compound 100.0000 μM

Chain of rat VMAT2 Q143A (Q01827 whole entry Q143A): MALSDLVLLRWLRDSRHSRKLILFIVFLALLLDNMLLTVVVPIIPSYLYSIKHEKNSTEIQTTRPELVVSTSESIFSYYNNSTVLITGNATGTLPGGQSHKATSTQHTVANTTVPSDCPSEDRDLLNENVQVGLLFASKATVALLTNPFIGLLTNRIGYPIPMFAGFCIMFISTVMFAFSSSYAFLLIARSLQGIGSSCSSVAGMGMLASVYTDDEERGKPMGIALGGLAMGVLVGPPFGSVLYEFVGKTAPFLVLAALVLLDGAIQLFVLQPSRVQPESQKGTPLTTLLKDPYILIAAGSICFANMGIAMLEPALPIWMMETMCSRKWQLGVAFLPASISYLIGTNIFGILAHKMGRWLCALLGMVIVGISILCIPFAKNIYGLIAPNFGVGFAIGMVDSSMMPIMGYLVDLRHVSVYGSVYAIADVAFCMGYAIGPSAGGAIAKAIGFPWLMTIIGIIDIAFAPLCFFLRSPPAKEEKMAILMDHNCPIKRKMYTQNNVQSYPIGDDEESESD
T3 sequence (Q05940 whole entry): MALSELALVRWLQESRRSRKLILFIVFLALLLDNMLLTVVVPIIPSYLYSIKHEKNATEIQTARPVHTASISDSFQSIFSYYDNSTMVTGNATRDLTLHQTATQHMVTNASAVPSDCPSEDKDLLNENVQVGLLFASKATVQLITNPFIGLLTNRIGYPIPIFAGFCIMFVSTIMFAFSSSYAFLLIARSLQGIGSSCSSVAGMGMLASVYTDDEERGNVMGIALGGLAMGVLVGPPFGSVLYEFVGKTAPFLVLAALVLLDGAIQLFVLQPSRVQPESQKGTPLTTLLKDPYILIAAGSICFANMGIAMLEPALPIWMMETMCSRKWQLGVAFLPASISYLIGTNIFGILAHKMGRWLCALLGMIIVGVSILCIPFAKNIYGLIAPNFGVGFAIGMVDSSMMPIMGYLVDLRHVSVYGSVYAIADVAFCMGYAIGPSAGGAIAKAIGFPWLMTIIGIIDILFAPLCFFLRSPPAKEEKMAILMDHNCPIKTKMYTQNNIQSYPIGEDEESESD
T1 sequence (Q01827 whole entry): as the sequence (Q01827 whole entry Q143A) above, with A143Q counted along it
T2 sequence (Q01827 whole entry): as the sequence (Q01827 whole entry Q143A) above, with A143Q counted along it
Chain of rat VMAT2 (Q01827 whole entry): as the sequence (Q01827 whole entry Q143A) above, with A143Q counted along it
Chain of rat VMAT2 P314A (Q01827 whole entry P314A): as the sequence (Q01827 whole entry Q143A) above, with A143Q, P314A counted along it
Chain of rat VMAT2 Y434A (Q01827 whole entry Y434A): as the sequence (Q01827 whole entry Q143A) above, with A143Q, Y434A counted along it

SMILES	IC50 [1] [nM]	ΔTm [2] [oC]	ΔTm at 12 µM [2] [°C]	ΔTm at 37 µM [2] [°C]	ΔTm at 10 µM [2] [°C]	ΔTm at 30 µM [2] [°C]	ΔTm at 90 µM [2] [°C]	ΔTm at 270 µM [2] [°C]	ΔTm at 11 µM [2] [°C]	ΔTm at 33 µM [2] [°C]	activity [3] [%]	IC50 [4] [nM]	effect on [3H]-DTBZ binding compared with DMSO control (one-way ANOVA, p < 0.001) [5]	[3H]-DTBZ binding relative to no compound (=1), replicate samples ([5]; compound 0.0017)	[3H]-DTBZ binding relative to no compound (=1), replicate samples ([5]; compound 0.0051)	[3H]-DTBZ binding relative to no compound (=1), replicate samples ([5]; compound 0.0152)	[3H]-DTBZ binding relative to no compound (=1), replicate samples ([5]; compound 0.0457)	[3H]-DTBZ binding relative to no compound (=1), replicate samples ([5]; compound 0.1372)	IC50 [6] [nM]	IC50 [7] [nM]	also measured
OCc1cc(C(O)CNCCCCCCOCCCCc2ccccc2)ccc1O (stereo not shown) [Salmeterol]	148 ± 33	9.71 ± 0.22	5.78	6.25	7.48	7.9	8.7	10.5	6.55	7.04	0.37 ± 2.83	234 ± 65	statistically significantly effect	0.6032 and 1.156 and 0.8878 and 0.838	0.6168 and 0.8711 and 1.077 and 0.9012	0.7563 and 1.108 and 1.007	0.5988 and 0.6867 and 0.7774 and 0.6452	0.4074 and 0.4854 and 0.3736 and 0.3232	35 ± 16	23 ± 2	[3H]-DTBZ binding relative to no compound (=1), replicate samples ([5]; compound 0.4115): 0.02476 and 0.03862 and 0.09845 and 0.04206; [3H]-DTBZ binding relative to no compound (=1), replicate samples ([5]; compound 1.2346): 0.01432 and 0.02317 and 0.00733 and 0.04172; [3H]-DTBZ binding relative to no compound (=1), replicate samples ([5]; compound 3.7037): 0.02156 and 0.02614 and 0.01787 and 0.1343; [3H]-DTBZ binding relative to no compound (=1), replicate samples ([5]; compound 11.1111): -0.04565 and 0.05011 and -0.00482 and -0.01021; [3H]-DTBZ binding relative to no compound (=1), replicate samples ([5]; compound 33.3333): -0.01836 and -0.0105 and -0.00518 and -0.00848; [3H]-DTBZ binding relative to no compound (=1), replicate samples [5, 10]: 0.02729 and -0.01624 and -0.00322 and -0.00727; IC50 [8]: 126 ± 87 nM; IC50 [9]: 53 ± 28 nM; VMAT2-specific FFN206 uptake relative to DMSO (=1), replicate samples [9]: 0.01652 and -0.1153 and -0.05311 and -0.0161; FFN206 uptake relative to no compound (=1), replicate samples [9, 11]: 0.8683 and 0.9316 and 0.8545 and 0.8755 and 0.7872 and 0.8834 and 0.9116 and 0.9363; FFN206 uptake relative to no compound (=1), replicate samples [9, 12]: 0.4384 and 0.5181 and 0.4428 and 0.5409 and 0.2594 and 0.3377 and 0.3056 and 0.4141; FFN206 uptake relative to no compound (=1), replicate samples [9, 13]: 0.2986 and 0.3445 and 0.2962 and 0.3132 and 0.1258 and 0.1847 and 0.149 and 0.1946; FFN206 uptake relative to no compound (=1), replicate samples [9, 14]: 0.2192 and 0.2619 and 0.2463 and 0.2625 and -0.00094 and 0.06663 and 0.05805 and 0.07997; FFN206 uptake relative to no compound (=1), replicate samples [9, 15]: 0.2883 and 0.2538 and 0.257 and 0.1826 and 0.05594 and 0.1039 and 0.07279 and 0.105; FFN206 uptake relative to no compound (=1), replicate samples [9, 16]: 0.2315 and 0.2175 and 0.2018 and 0.1642 and 0.02429 and 0.09314 and 0.05353 and 0.1229; FFN206 uptake relative to no compound (=1), replicate samples [9, 17]: 0.2045 and 0.2463 and 0.2058 and 0.2286 and -0.0325 and 0.06428 and 0.00994 and 0.07; FFN206 uptake relative to no compound (=1), replicate samples ([9]; Fig. 2c source data, compound 0.0017 μM): 0.9528 and 0.9756 and 1.008 and 0.9844
COc1cc2c(cc1OC)C1CC(=O)C(CC(C)C)CN1CC2 (stereo not shown) [Tetrabenazine]		8.17 ± 0.14	4.89	5.05	6.86	4.27	4.64	5.17	5.52	5.92									18	> 100000	
O=C1Cc2cc(CCN3CCN(c4nsc5ccccc45)CC3)c(Cl)cc2N1 [Ziprasidone, Ziprasidone Hydrochloride]	354 ± 83	2.69 ± 0.12	0.41	0.68	0.6	0.71	1.13	1.82	0.69	0.58	36.5 ± 7.71	132 ± 8	statistically significantly effect	0.8751 and 1.064 and 1.013 and 0.8455	0.8936 and 1.069 and 1.018 and 0.8322	0.7303 and 1.42 and 1.076 and 0.8096	0.8393 and 0.4876 and 0.8108 and 0.8579	1.015 and 0.924 and 0.9381 and 0.7974	23	35	fold increased IC50 vs wild-type ([1]; Q143A): ~10 fold; fold increased IC50 vs wild-type ([4]; P314A): approx. 3 fold; [3H]-DTBZ binding relative to no compound (=1), replicate samples ([5]; compound 0.4115): 0.6748 and 0.8924 and 0.7988 and 0.4363; [3H]-DTBZ binding relative to no compound (=1), replicate samples ([5]; compound 1.2346): 0.4427 and 0.7246 and 0.4654 and 0.6729; [3H]-DTBZ binding relative to no compound (=1), replicate samples ([5]; compound 3.7037): 0.6274 and 0.382 and 0.3472 and 0.5985; [3H]-DTBZ binding relative to no compound (=1), replicate samples ([5]; compound 11.1111): 0.6424 and 0.4197 and 0.5023 and 0.5651; [3H]-DTBZ binding relative to no compound (=1), replicate samples ([5]; compound 33.3333): 0.4189 and 0.1764 and 0.1269 and 0.541; [3H]-DTBZ binding relative to no compound (=1), replicate samples [5, 10]: 0.3228 and 0.1927 and 0.2304 and 0.2985; IC50 [9]: 39 ± 17 nM; VMAT2-specific FFN206 uptake relative to DMSO (=1), replicate samples [9]: -0.0048 and -0.08665 and -0.06177 and 0.05752; FFN206 uptake relative to no compound (=1), replicate samples [9, 11]: 0.7804 and 0.7848 and 0.755 and 0.7991; FFN206 uptake relative to no compound (=1), replicate samples [9, 12]: 0.4886 and 0.4837 and 0.4034 and 0.5734; FFN206 uptake relative to no compound (=1), replicate samples [9, 13]: 0.4342 and 0.3743 and 0.3683 and 0.4657; FFN206 uptake relative to no compound (=1), replicate samples [9, 14]: 0.3953 and 0.3737 and 0.3153 and 0.4191; FFN206 uptake relative to no compound (=1), replicate samples [9, 15]: 0.3802 and 0.3604 and 0.2907 and 0.3691; FFN206 uptake relative to no compound (=1), replicate samples [9, 16]: 0.4118 and 0.377 and 0.294 and 0.3618; FFN206 uptake relative to no compound (=1), replicate samples [9, 17]: 0.3782 and 0.3789 and 0.3057 and 0.3727
